Experimental data from US5652232A, “Benzolactam derivatives” (Shionogi & Co., Ltd., priority 1993, dated 1997).
≈ marks a conversion by molar mass, not a printed value. Read-outs that look alike come from different tables or passages of the source.

What was measured:
HIV (HIV-1IIIB strain) = assay: Antiviral activity: inhibition of HIV cytotoxicity in MT-4 cells (MTT); assay type: cell-based; details: Human immunodeficiency virus 1, MT4, 120 h, read-out: EC50: concentration of the compound that achieved 50% inhibition of cytotoxicity by the virus
Protocol: (§1) (A) A human T-cell strain MOLT-4 clone 8, persistently infected with HIV (HIV-1IIIB strain), was cultured in RPMI-1640 medium supplemented with 10% fetal bovine serum. The culture supernatant was then filtered and stored at -80° C. after a measurement of viral titer. Each of test compounds was diluted with the above culture medium so as to be a predetermined concentration, and 50 μl of the solution was added to each of wells of a 96-well microtiter plate. Then, after the addition of each 100 μl of MT-4 cell suspension (3.5×10^4 cells) to the well, the above-prepared HIV-containing supernatant was diluted with the above medium and 50μl of the dilution (60 plaque forming units) was added to each well.
(§2) (B) After incubation of the 96-well microtiter plate in a CO2 -incubator at 37° C. for 5 days, 30 μl of MTT [3-(4,5-dimethylthiazole-2-yl)-2,5-diphenyltetrazorium bromide, 5 mg/ml, PBS] was added to each well and incubation was continued for 1 hour.
(§3) Cells having survived reduced MTT to precipitate formazan. 150 μl of culture supernatant was removed from each well and 150 μl of a solubilizing solution (10% Triton X-100 and isopropanol supplemented with 0.4% (V/V) HCl) was added to each well and the plate was shaken by using a plate mixer to dissolve the formazan. The dissolved formazan was measured by O.D. at 540 nm and the results were compared with referenced control. EC50 (μg/ml) was defined as a concentration of the compound that achieved 50% inhibition of cytotoxicity by the virus. DMSO was used as a solvent and the tested concentrations were 0.0001-10 μg/ml.

[1] = Cytotoxicity against MT-4 cells (MTT); assay type: cell-based; details: human
Protocol: as §1, §2, §3
Cytotoxicities of the test compounds against the MT-4 cells were measured in the same manner as step (A) of the above-described antiviral activity test, provided that 50 μl of the culture medium was added to each well instead of the HIV-containing supernatant (virus solution), which was followed by the same treatment as step (B). CC50 (μg/ml) was defined as a concentration of test compound inducing 50% cytotoxicity.

[2] = MT-4 cells, no virus, 5 days at 37° C., MTT, read-out: CC50: concentration of test compound inducing 50% cytotoxicity

Row | SMILES | EC50 (HIV (HIV-1IIIB strain)) [µg/mL] | CC50 at 120 h [1, 2] [µg/mL] | CC50 at 120 h ([1]; mt-4 cells) [µg/mL]
1 | CCCCCCCCCCc1ccc2c(c1)N(C)[C@@H](C(C)C)C(=O)N[C@H](CO)C2 (relative stereo) [(±)-BL-V8-310] | 0.001 to 0.01 (≈ 0.00248 to 0.0248 µM) | 1 (≈ 2.48 µM) | 
2 | CC(C)[C@H]1C(=O)N[C@H](CO)Cc2cc3c(cc2N1C)C(C)(C)CCC3(C)C (relative stereo) [BL-V8-23T] |  | 1 to 10 (≈ 2.68 to 26.8 µM) | 
3 | CC(C)[C@H]1C(=O)N[C@@H](CO)Cc2ccccc2N1C (relative stereo) [epi-BL-V8] | 2.5 to 5 (≈ 9.53 to 19.1 µM) | 10 (≈ 38.1 µM) | 
4 | CCCCCCCCCCc1ccc2c(c1)N(C)[C@H](C(C)C)C(=O)N[C@H](CO)C2 [(+)-epi-BL-V8-310] | 0.1 (≈ 0.248 µM) | 5 to 10 (≈ 12.4 to 24.8 µM) | 
5 | CCCCCCCCCCc1ccc2c(c1)N(C)[C@@H](C(C)C)C(=O)N[C@@H](CO)C2 [(-)-epi-BL-V8-310] | 0.16 (≈ 0.397 µM) | 2.5 to 5 (≈ 6.21 to 12.4 µM) | 
6 | CC(C)[C@H]1C(=O)N[C@@H](CO)CCCc2ccccc2N1C (relative stereo) [epi-BL-V10] | > 10 |  | > 10
7 | CC(C)[C@H]1C(=O)N[C@H](CO)Cc2ccccc2N1C (relative stereo) [BL-V8] | 0.1 to 1 (≈ 0.381 to 3.81 µM) | 10 (≈ 38.1 µM) | 
8 | CC(C)[C@H]1C(=O)N[C@H](CO)CCc2ccccc2N1C (relative stereo) [BL-V9] | > 10 | > 10 | 
9 | CCCCCCCCCCc1ccc2c(c1)N(C)[C@@H](C(C)C)C(=O)N[C@@H](CO)C2 (relative stereo) [(±)-epi-BL-V8-310] | 0.13 (≈ 0.323 µM) | 1 (≈ 2.48 µM) | 
10 | CC(C)[C@H]1C(=O)N[C@H](CO)CCCc2ccccc2N1C (relative stereo) [BL-V10] | > 10 |  | > 10
11 | CCCCCCCCCCc1ccc2c(c1)N(C)[C@H](C(C)C)C(=O)N[C@H](CO)CC2 (relative stereo) [epi-BL-V9-310] | 0.3 (≈ 0.72 µM) | 5 to 10 (≈ 12 to 24 µM) | 
12 | CCCCCCCCCCc1ccc2c(c1)N(C)[C@@H](C(C)C)C(=O)N[C@H](CO)C2 [(-)-BL-V8-310] | 0.003 (≈ 0.00745 µM) | 5 to 10 (≈ 12.4 to 24.8 µM) | 
13 | CCCCCCCCCCc1ccc2c(c1)N(C)[C@@H](C(C)C)C(=O)N[C@H](CO)CC2 (relative stereo) [BL-V9-310] | 2.5 to 5 (≈ 6 to 12 µM) | 10 (≈ 24 µM) | 
14 | CC(C)[C@H]1C(=O)N[C@@H](CO)CCc2ccccc2N1C (relative stereo) [epi-BL-V9] | > 10 | > 10 | 
15 | CC(C)[C@@H]1C(=O)N[C@H](CO)Cc2cc3c(cc2N1C)C(C)(C)CCC3(C)C (relative stereo) [epi-BL-V8-23T] |  | 1 to 10 (≈ 2.68 to 26.8 µM) | 
16 | CCCCCCCCCCc1ccc2c(c1)N(C)[C@H](C(C)C)C(=O)N[C@@H](CO)C2 [(+)-BL-V8-310] | 0.05 to 0.1 (≈ 0.124 to 0.248 µM) | 5 to 10 (≈ 12.4 to 24.8 µM) | 
